# Measurements as given in patent US7250511B2, “Process for the preparation of cyclopenta[g]quinazoline derivatives” (BTG International Limited, priority 2001, dated 2007).
row,melting point,Compound
1,> 165 °C (dec.),"C#CCN(c1ccc(C(=O)N[C@@H](CCC(=O)N(C)[C@@H](CCC(=O)O)C(=O)O)C(=O)O)cc1)C1CCc2cc3nc(CO)[nH]c(=O)c3cc21 (mixture of isomers) [Example 5, N-{N-{4-[N-((6RS)-2-hydroxymethyl-4-oxo-3,4,7,8-tetrahydro-6H-cyclopenta[g]quinazolin-6yl)-N-(prop-2-ynyl)amino]-benzoyl}-L-γ-glutamyl}-N-methyl-L-glutamic acid]"
2,175 °C (dec.),"C#CCN(c1ccc(C(=O)N[C@@H](CCC(=O)N[C@H](CCC(=O)O)C(=O)O)C(=O)O)c(F)c1)C1CCc2cc3nc(C)[nH]c(=O)c3cc21 (mixture of isomers) [Example 4, N-{N-{4[N-((6RS)-2-methyl-4-oxo-3,4,7,8-tetra-hydro-6H-cyclopental[g]quinazolin-6-yl)-N-(prop2-ynyl)amino]-2-fluoro-benzoyl}-L-γ-glutamyl}-D-glutamic acid]"
3,305 to 307 °C,"C#CCN(c1ccc(C(=O)O)cc1)C1CCc2cc3nc(C)[nH]c(=O)c3cc21 (racemic) [Example 1, 4{N-[(6RS)-2-Methyl-4-oxo-3,4,7,8-tetrahydro-6H-cyclopenta[g]quinazolin-6-yl]-N-(prop-2-ynyl)amino}benzoic acid]"
4,150 to 155 °C,"C#CCN(c1ccc(C(=O)N[C@@H](CCC(=O)N[C@H](CCC(=O)O)C(=O)O)C(=O)O)cc1)C1CCc2cc3nc(COC)[nH]c(=O)c3cc21 (mixture of isomers) [Example 2, N-{N-{4-[N-((6RS)-2-Methoxymethyl4oxo-3,4,7,8-tetrahydro-6H-cyclopent[g]quinazolin-6-yl)-N-(prop-2-ynyl)amino]-benzoyl}-L-γ-glutamyl}-D-glutamic acid]"
